Source: patent US6994983B2, “Kits for determination of thromboxane B2 metabolite and optimizing aspirin dosage” (Esoterix, Inc. Coagulation, priority 1999, dated 2006)
“And” between values parts separate entries of the source, which are not always exact repeats. Equal entries are not always repeated.

Columns and labels:
[1] = in vivo; cited from earlier work
platelet reactivity = conditions: cited from earlier work
[2] = patients with prior acute myocardial infarction or stroke; cited from earlier work
[3] = test system: platelet suppression response; conditions: patients on aspirin therapy; cited from earlier work
platelet aggregation [4] = conditions: intermittent claudication, 100 mg aspirin/day, at any given time; cited from earlier work
serum TXB2 = conditions: 3 mg of aspirin per day, healthy volunteers; cited from earlier work
[5] = single dose of 325 mg; cited from earlier work
[6] = cited from earlier work
11-dehydro TXB2 [7] = test: Platelet urinary response ratio (PURR), aspirin therapy vs non-users, reformulated buffer; assay type: in vivo, human
Text: The PURRs generated in the 11-dehydro thromboxane B2 assay in the present example were higher than those generated in subsequent studies. The average reduction after the investigators initial assay was 60%. This change was a result of a reformulation of the reagent buffer. Reformation of the buffer was made by the supplier, Cayman Chemical Corporation. The initial buffer was thought to be a phosphate saline buffer. The reformatted buffer is an alpha diethanolamine buffer. […] The buffer change was made to convert any lactone form present in the same urine to the free acid form of the thromboxane. The current procedure requires a two-hour pre-incubation of the urine sample in the diethanolamine buffer in order to allow for the conversion of the forms before pipetting to the plate. The new decision point for the assay is 400 PURR units, down from the original 1000.
To normalize for urinary output, results are expressed as platelet urinary response ratio (PURR) based upon pg 11-dehydro TXB2/g creatinine. Results of all populations were compared using the student t-test.

11-dehydro TXB2 [8] = test: 11-dehydro TXB2 in random urine of aspirin users and non-users (acetylcholinesterase-linked immunoassay); assay type: in vivo, human; conditions: 45 people taking at least 81 mg/day; non-aspirin users 2080
Protocol: Random urine specimens were collected from 65 individuals who had avoided aspirin for at least two weeks and from 45 individuals who were taking 81 or 325 mg/day by prescription. Each specimen was assayed for 11-dehydro-TXB2. Specimens were assayed at two dilutions using acetylcholinesterase-linked immunoassay. The results were tested for parallelism and averaged. Urine creatinine was assayed using the Jaffe picrate reaction. To normalize for urinary output, results were expressed in pg 11-dehydro TXB2/mg creatinine. Results of all populations were compared using the student t-test. Within-day variation is 30% and day-to-day variation 20%.
11-dehydrothromboxane B2 (11-de-H-TXB2), a stable metabolite of platelet activation was measured in random urine specimens from 65 people who were not taking aspirin and 45 who were taking at least 81 mg/day. The means for non-aspirin users was 2080 pg 11-de-H-TXB2/mg creatinine, and for aspirin users was 523, p.<0.0000.1. Receiver-operating characteristic analysis yields an optimum decision point of 1000 pg 11-de-H-TXB2 in random urine may be used to document aspirin's platelet-suppressive effects and to identify individuals who may not achieve antithrombotic benefits.

[9] = in vivo; cited from earlier work; remark: listed apart in the source
platelet aggregation [10] = conditions: cited from earlier work
[11] = smokers after partial ileal bypass surgery reporting even infrequent aspirin use; 45.2% with no aspirin use; cited from earlier work
[12] = test system: 11-dehydro thromboxane B2; test: Urine 11-dehydro thromboxane B2 (PURR) after one-week interventions with purple grape juice, vitamin E and aspirin; assay type: in vivo, human; conditions: for Mean post-intervention PURR: one week each: purple grape juice controlled daily volumes, mean baseline 1105; for Mean post-intervention PURR / % Change of PURR vs mean baseline: vitamin E 400 international units per day, aspirin 650 mg per day; for % Change of PURR vs mean baseline: one week each: purple grape juice; for effect upon urinary excretion of 11-dehydro thromboxane B2: one-week interventions, in words
Protocol: 11-dehydro thromboxane B2, a stable metabolite of platelet-specific cyclooxygenase activity, in urine specimens from 29 individuals was measured. Participants were instructed to drink controlled daily volumes of purple grape juice, 400 international units per day of vitamin E, and 650 mg per day of aspirin. Each intervention was given in one-week intervals separated by a one-week washout period. The metabolite was measured in baseline, post-intervention, and post-washout urine specimens and the results were expressed as platelet urinary response ratios (PURR) based upon pg 11-dehydrothromboxane B2/mg creatinine.

11-dehydro TXB2 [13] = test: Crossover study: urine 11-dehydro TXB2 before and 24 hours after one 81 or 325 mg aspirin tablet in 24 healthy individuals; assay type: in vivo, human; conditions: for mean reduction of 11-dehydro TXB2 / PURR: healthy non-aspirin users
Protocol: (§1) In a crossover study, 24 healthy individuals who had avoided aspirin for a minimum of 10 days collected random baseline urine specimens. They then took one 81 or 325 mg tablet at 8:00 a.m. and collected a second urine specimen 24 hours after the aspirin was taken. Following a two-week washout period dosages were reversed and another baseline and 24-hours post-aspirin specimen was collected.
as §1, with “study, twenty-four” for “study, 24”, “of ten” for “of 10”, “8:00 AM” for “8:00 a.m.”, “a 2-week” for “a two-week”

Compound: CCCCCC(O)C=CC1OC(=O)CC(O)C1CC=CCCCC(=O)O (stereo not shown) [11-dehydro TXB2, 11-dehydro thromboxane B2]
- plasma half-life [1]: 45 min

Compound: CC(=O)Oc1ccccc1C(=O)O [Aspirin, acetyl salicylic acid]
- subjects with immediate suppression of platelet reactivity (platelet reactivity; 500 mg three times per day, upon initial administration): 90%
- secondary aspirin non-responders with myocardial infarct, repeat stroke, or vascular death (platelet reactivity; 24-month period following discharge): 40%
- remaining subjects with major endpoints (platelet reactivity; 114 remaining subjects, 24-month period): 4.4%
- new thrombotic events prevented [2]: up to 40 per thousand treated
- individuals with aspirin resistance / less than adequate platelet suppression response [3]: up to 20%
- males with complete inhibition of aggregation (platelet aggregation [4]): 40%
- reduction of serum TXB2 levels compared to placebo (serum TXB2): 39%
- duration of effect on platelet laboratory assays [5]: six to ten
- reduction of the morning peak of infarction ([6]; between 4 and 10 a.m., 325 mg every other day): 59.3%
- mean reduction in the incidence of first myocardial infarction ([6]; healthy men, 325 mg every other day, vs placebo): 44.8%
- thrombotic events prevented, average ([6]; healthy men): four
- Mean PURR, aspirin therapy (11-dehydro TXB2 [7]; 81 to 325 mg/day, N 98, aspirin non-users 1147): 297 PURR units
- individuals identified as potential non-responders (11-dehydro TXB2 [7]; aspirin users, decision points 400 / 500 pg 11-dehydro-TXB2/mg creatinine): 13%
- mean 11-de-H-TXB2 in random urine of aspirin users (11-dehydro TXB2 [8]): 523 pg 11-de-H-TXB2/mg creatinine
- relative risk for hemorrhagic stroke [9]: 4 ×
- relative risk of ischemic stroke [9]: 1.6 ×
- patients with only partial inhibition of platelet aggregation (platelet aggregation [10]; atrial fibrillation, 325 mg enteric coated aspirin per day): seven of 17
- patients with restoration of platelet aggregation (aspirin resistance) (platelet aggregation [10]; previous ischemic stroke, escalation to 1300 mg/day): 8.2%
- overall mortality rate [11]: 10.4%
- Mean post-intervention PURR [12]: 379.7 PURR
- % Change of PURR vs mean baseline [12]: −65.6%
- effect upon urinary excretion of 11-dehydro thromboxane B2 [12]: large and statistically significant effect
- % Inhibition (81) (11-dehydro TXB2 [13]; 81 mg aspirin, urine 11-dehydro TXB2 24 hours post-dose vs baseline, individual subjects 3, 8, 12, 14, 17, 18, 24 with weak response): 60% and 78% and 46% and 48% and 70% and 17% and 10%
- mean reduction of 11-dehydro TXB2 / PURR (11-dehydro TXB2 [13]; 81 mg/day): 68%
- % Inhibition (325) (11-dehydro TXB2 [13]; 325 mg aspirin, urine 11-dehydro TXB2 24 hours post-dose vs baseline, individual subjects 3, 8, 12, 14, 17, 18, 24 with weak response): 44% and 40% and 82% and 83% (2×) and 46% and 38%
- mean reduction of 11-dehydro TXB2 / PURR (11-dehydro TXB2 [13]; 325 mg/day): 76%
- individuals with a less than 50% response to either 81 mg or 325 mg of aspirin (11-dehydro TXB2 [13]; crossover study, seven individuals): 30%

Compound: Vitamin E
- Mean post-intervention PURR [12]: 1293.1 PURR
- % Change of PURR vs mean baseline [12]: +14.3%
- effect upon urinary excretion of 11-dehydro thromboxane B2 [12]: no measurable effect
